From the NIST ThermoML archive (doi:10.1021/acs.jced.6b00158)

Assay: xn = mol fraction of the nth substance listed
Details: 100 kPa, Liquid; for viscosity: Falling or rolling sphere viscometry; for mass density: Vibrating tube method

NC1CCCCC1 [cyclohexylamine] + CC(C)CO
Details | mass density, 293.15 K [kg/m3] | mass density, 298.15 K [kg/m3] | mass density, 303.15 K [kg/m3] | mass density, 308.15 K [kg/m3] | mass density, 313.15 K [kg/m3] | viscosity, 293.15 K [mPa·s] | viscosity, 298.15 K [mPa·s] | viscosity, 303.15 K [mPa·s] | viscosity, 308.15 K [mPa·s] | viscosity, 313.15 K [mPa·s]
x2 = 0 | 866.85 | 862.31 | 857.79 | 853.24 | 848.71 | 2.134 | 1.944 | 1.786 | 1.572 | 1.417
x2 = 0.06096 | 865.7 | 861.18 | 856.68 | 852.18 | 847.71 | 2.408 | 2.146 | 1.948 | 1.697 | 1.515
x2 = 0.1205 | 865.02 | 860.59 | 856.11 | 851.64 | 847.15 | 2.575 | 2.279 | 2.055 | 1.791 | 1.578
x2 = 0.2357 | 861.79 | 857.37 | 852.93 | 848.49 | 844.09 | 2.838 | 2.474 | 2.204 | 1.917 | 1.678
x2 = 0.3458 | 856.98 | 852.62 | 848.23 | 843.79 | 839.39 | 3.048 | 2.644 | 2.334 | 2.022 | 1.761
x2 = 0.4513 | 850.89 | 846.55 | 842.2 | 837.83 | 833.46 | 3.246 | 2.805 | 2.454 | 2.123 | 1.839
x2 = 0.5523 | 847.01 | 842.76 | 838.46 | 834.13 | 829.78 | 3.403 | 2.937 | 2.558 | 2.212 | 1.902
x2 = 0.6492 | 839.36 | 835.13 | 830.89 | 826.62 | 822.37 | 3.522 | 3.037 | 2.626 | 2.275 | 1.96
x2 = 0.7421 | 830.79 | 826.7 | 822.55 | 818.36 | 814.15 | 3.534 | 3.046 | 2.629 | 2.303 | 1.998
x2 = 0.8315 | 820.81 | 816.78 | 812.73 | 808.63 | 804.54 | 3.606 | 3.088 | 2.646 | 2.309 | 1.998
x2 = 0.9174 | 814.12 | 810.19 | 806.19 | 802.09 | 798 | 3.668 | 3.13 | 2.676 | 2.345 | 2.015
